Reference: patent US9573956B2, “Compounds as dual inhibitors of phosphodiesterases and histone deacetylases” (FUNDACIÓN PARA LA INVESTIGACIÓN MÉDICA APLICADA, priority 2013, dated 2017)
pIC50: −log10 of the molar value.

What was measured:
Format in all cases: biochemical
HDAC6 = biological target: T1, HDAC6 (Homo sapiens, UniProt Q9UBN7); assay: HDAC enzyme activity assay (fluorogenic substrate), HDAC6; settings: recombinant enzyme; read-out: HDAC6 inhibition (IC50)
T1 construct: BC069243; Cat. #50006) is full-length with N-terminal GST tag; GST (N); purchased BPS Biosciences 50006; host or cells: baculovirus infected Sf9 cells
T1 sequence (Q9UBN7 1-1215): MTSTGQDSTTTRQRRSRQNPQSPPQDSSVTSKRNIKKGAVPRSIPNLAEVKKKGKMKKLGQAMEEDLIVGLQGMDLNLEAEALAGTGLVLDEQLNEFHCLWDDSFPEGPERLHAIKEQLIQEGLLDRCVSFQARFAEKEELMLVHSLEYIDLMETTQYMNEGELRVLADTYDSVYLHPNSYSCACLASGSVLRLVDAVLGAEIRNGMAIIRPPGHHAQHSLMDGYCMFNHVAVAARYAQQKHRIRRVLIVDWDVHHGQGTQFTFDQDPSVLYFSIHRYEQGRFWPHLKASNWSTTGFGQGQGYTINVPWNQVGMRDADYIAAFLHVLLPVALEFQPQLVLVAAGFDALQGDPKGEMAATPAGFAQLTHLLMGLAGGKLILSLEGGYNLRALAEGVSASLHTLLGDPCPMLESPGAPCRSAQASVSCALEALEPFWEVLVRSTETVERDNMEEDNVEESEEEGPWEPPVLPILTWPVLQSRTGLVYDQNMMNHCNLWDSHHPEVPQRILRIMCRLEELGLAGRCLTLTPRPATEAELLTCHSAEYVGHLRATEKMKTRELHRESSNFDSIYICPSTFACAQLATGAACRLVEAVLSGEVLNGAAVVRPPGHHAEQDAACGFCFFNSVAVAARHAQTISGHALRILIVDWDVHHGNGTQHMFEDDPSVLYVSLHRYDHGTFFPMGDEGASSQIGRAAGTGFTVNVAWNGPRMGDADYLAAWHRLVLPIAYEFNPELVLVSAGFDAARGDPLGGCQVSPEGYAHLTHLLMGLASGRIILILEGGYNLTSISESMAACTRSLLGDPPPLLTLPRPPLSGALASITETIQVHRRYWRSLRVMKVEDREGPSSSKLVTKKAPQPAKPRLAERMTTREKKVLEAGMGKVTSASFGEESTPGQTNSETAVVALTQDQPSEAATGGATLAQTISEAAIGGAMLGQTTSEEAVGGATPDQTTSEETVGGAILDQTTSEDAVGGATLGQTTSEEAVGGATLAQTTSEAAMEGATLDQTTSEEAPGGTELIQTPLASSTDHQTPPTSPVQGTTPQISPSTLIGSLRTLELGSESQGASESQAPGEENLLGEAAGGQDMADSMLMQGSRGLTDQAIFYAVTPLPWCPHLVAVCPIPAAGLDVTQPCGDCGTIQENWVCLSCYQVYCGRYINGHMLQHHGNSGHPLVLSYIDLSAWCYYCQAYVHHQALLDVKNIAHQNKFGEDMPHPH

PDE5A = biological target: T2, PDE5A (Homo sapiens, UniProt O76074); assay: PDE enzyme activity assay (HTRF cGMP), PDE5A; settings: recombinant enzyme; read-out: PDE5A1 inhibition (IC50)
T2 construct: they are full-length with N-terminal GST tag; GST (N); purchased BPS Biosciences 60050; host or cells: baculovirus infected Sf9 cells

HDAC1 = HDAC1 (Homo sapiens, UniProt Q13547); assay: HDAC enzyme activity assay (fluorogenic substrate), HDAC1; settings: recombinant enzyme; read-out: HDAC1 inhibition (IC50)
HDAC2 = biological target: T3, HDAC2 (Homo sapiens, UniProt Q92769); assay: HDAC enzyme activity assay (fluorogenic substrate), HDAC2; settings: recombinant enzyme; read-out: HDAC2 inhibition (IC50)
T3 construct: NM_001527; Cat. #50002) is full-length with C-terminal his tag; His (C); purchased BPS Biosciences 50002; host or cells: baculovirus infected Sf9 cells
T3 sequence (Q92769 whole entry): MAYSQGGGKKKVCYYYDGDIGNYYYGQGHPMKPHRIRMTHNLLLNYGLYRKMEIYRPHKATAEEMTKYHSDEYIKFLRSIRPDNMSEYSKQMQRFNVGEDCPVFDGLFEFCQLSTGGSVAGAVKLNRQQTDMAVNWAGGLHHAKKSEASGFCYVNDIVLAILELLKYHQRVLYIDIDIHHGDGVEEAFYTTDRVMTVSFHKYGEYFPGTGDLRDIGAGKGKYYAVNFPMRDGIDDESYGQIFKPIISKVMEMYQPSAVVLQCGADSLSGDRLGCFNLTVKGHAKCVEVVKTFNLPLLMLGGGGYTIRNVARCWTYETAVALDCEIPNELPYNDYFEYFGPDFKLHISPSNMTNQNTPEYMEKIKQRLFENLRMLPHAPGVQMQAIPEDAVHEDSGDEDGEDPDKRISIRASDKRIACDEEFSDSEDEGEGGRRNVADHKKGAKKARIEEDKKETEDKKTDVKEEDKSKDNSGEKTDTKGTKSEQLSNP

HDAC1, sequence (Q13547 whole entry): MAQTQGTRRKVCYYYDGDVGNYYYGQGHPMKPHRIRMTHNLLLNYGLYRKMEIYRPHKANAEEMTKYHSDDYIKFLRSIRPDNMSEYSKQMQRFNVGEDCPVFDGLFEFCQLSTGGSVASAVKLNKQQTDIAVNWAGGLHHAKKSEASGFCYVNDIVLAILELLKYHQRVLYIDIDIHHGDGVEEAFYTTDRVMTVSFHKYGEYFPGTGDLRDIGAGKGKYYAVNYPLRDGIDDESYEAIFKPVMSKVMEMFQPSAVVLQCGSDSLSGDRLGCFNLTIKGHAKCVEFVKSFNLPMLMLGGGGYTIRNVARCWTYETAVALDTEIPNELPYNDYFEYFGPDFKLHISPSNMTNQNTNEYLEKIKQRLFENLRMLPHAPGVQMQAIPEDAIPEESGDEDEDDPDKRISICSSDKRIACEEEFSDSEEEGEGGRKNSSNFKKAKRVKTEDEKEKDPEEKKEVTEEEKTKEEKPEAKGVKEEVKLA

Structure (SMILES) | pIC50 (HDAC6) | pIC50 (PDE5A) | pIC50 (HDAC1) | pIC50 (HDAC2)
CCCc1nn(C)c2c(=O)[nH]c(-c3cc(C4CCC(C(=O)NO)CC4)ccc3OCC)nc12 (racemic) [Example 1-75, 4-[4-ethoxy-3-(1-methyl-7-oxo-3-propyl-6H-pyrazolo[4,3-d]pyrimidin-5-yl)phenyl]cyclohexanecarbohydroxamic acid] | 5.00 to 6.00 | 6.00 to 8.00 | – | –
CCCc1nn(C)c2c(=O)[nH]c(-c3cc(CC4CCC(C(=O)NO)CC4)ccc3OCC)nc12 (racemic) [Example 1-76, 4-[[4-ethoxy-3-(1-methyl-7-oxo-3-propyl-6H-pyrazolo[4,3-d]pyrimidin-5-yl)phenyl]methyl]cyclohexanecarbohydroxamic acid] | 6.00 to 8.00 | 6.00 to 8.00 | – | –
CCCc1nn(C)c2c(=O)[nH]c(-c3cc(S(=O)(=O)N4CCC(CCC(=O)NO)CC4)ccc3OCC)nc12 [Example 1-01] | – | 6.00 to 8.00 | < 5.00 | < 5.00
CCCc1nn(C)c2c(=O)[nH]c(-c3cc(S(=O)(=O)N4CCN(Cc5ccc(/C=C/C(=O)NO)cc5)CC4)ccc3OCC)nc12 [Example 1-02] | – | > 8.00 | 6.00 to 8.00 | 5.00 to 6.00
CCCc1nn(C)c2c(=O)[nH]c(-c3cc(OCC4CCN(c5ncc(C(=O)NO)cn5)CC4)ccc3OCC)nc12 [Example 1-11, N-Hydroxy-2-(4-[3-(6,7-dihydro-1-methyl-7-oxo-3-propyl-1H-pyrazolo[4,3-d]pyrimidin-5-yl)-4-ethoxyphenoxymethyl]-piperidin-1-yl)pyrimidine-5-carboxamide] | – | 5.00 to 6.00 | 6.00 to 8.00 | –
CCCc1nn(C)c2c(=O)[nH]c(-c3cccc(OC4CCN(c5ncc(C(=O)NO)cn5)CC4)c3)nc12 [Example 1-14] | 6.00 to 8.00 | 5.00 to 6.00 | 6.00 to 8.00 | –
CCCc1nn(C)c2c(=O)[nH]c(-c3cc(NC4CCN(c5ccc(C(=O)NO)cc5)CC4)ccc3OCC)nc12 [Example 1-47] | 5.00 to 6.00 | 6.00 to 8.00 | 5.00 to 6.00 | –
CCCc1nn(C)c2c(=O)[nH]c(-c3cc(-c4ccc(C(=O)NO)s4)ccc3OCC)nc12 [Example 1-71] | 6.00 to 8.00 | > 8.00 | – | –
CCCc1nn(C)c2c(=O)[nH]c(-c3cc(-c4ccc(C(=O)NO)cn4)ccc3OCC)nc12 [Example 1-72] | 6.00 to 8.00 | > 8.00 | – | –
CCCc1nn(C)c2c(=O)[nH]c(-c3cc(-c4ccc(C(=O)NO)nc4)ccc3OCC)nc12 [Example 1-73] | 6.00 to 8.00 | > 8.00 | – | –
CCCc1nn(C)c2c(=O)[nH]c(-c3cc(-c4ccc(C(=O)NO)o4)ccc3OCC)nc12 [Example 1-74] | 5.00 to 6.00 | > 8.00 | – | –
CCCc1nn(C)c2c(=O)[nH]c(-c3cc(C(OC)c4ccc(C(=O)NO)cc4)ccc3OCC)nc12 (stereo not drawn) [Example 1-77, 4-[[4-ethoxy-3-(1-methyl-7-oxo-3-propyl-6H-pyrazolo[4,3-d]pyrimidin-5-yl)phenyl]-methoxy-methyl]benzenecarbohydroxamic acid] | 6.00 to 8.00 | 6.00 to 8.00 | – | –
CCCc1nn(C)c2c(=O)[nH]c(-c3cc(C(O)c4ccc(C(=O)NO)cc4)ccc3OCC)nc12 (stereo not drawn) [Example 1-78, 4-[[4-ethoxy-3-(1-methyl-7-oxo-3-propyl-6H-pyrazolo[4,3-d]pyrimidin-5-yl)phenyl]-hydroxy-methyl]benzenecarbohydroxamic acid] | 6.00 to 8.00 | > 8.00 | – | –

Next, values leading:

pIC50 (HDAC6) | pIC50 (PDE5A) | pIC50 (HDAC1) | pIC50 (HDAC2) | Structure (SMILES)
6.00 to 8.00 | 6.00 to 8.00 | – | – | CCCc1nn(C)c2c(=O)[nH]c(-c3cc(CC4CCC(C(=O)NO)C4)ccc3OCC)nc12 (racemic) [Example 1-80, 3-[[4-ethoxy-3-(1-methyl-7-oxo-3-propyl-6H-pyrazolo[4,3-d]pyrimidin-5-yl)phenyl]methyl]cyclopentanecarbohydroxamic acid]
6.00 to 8.00 | 6.00 to 8.00 | – | – | CCCc1nn(C)c2c(=O)[nH]c(-c3cc(C4CC(C(=O)NO)C4)ccc3OCC)nc12 (racemic) [Example 1-82, 3-[4-ethoxy-3-(1-methyl-7-oxo-3-propyl-6H-pyrazolo[4,3-d]pyrimidin-5-yl)phenyl]cyclobutanecarbohydroxamic acid]
5.00 to 6.00 | > 8.00 | – | – | CCCc1nc(C)c2c(=O)[nH]c(-c3cc(C4CCC(C(=O)NO)CC4)ccc3OCC)nn12 (racemic) [Example 2-12, 4-[4-ethoxy-3-(5-methyl-4-oxo-7-propyl-3H-imidazo[5,1-f][1,2,4]triazin-2-yl)phenyl]cyclohexanecarbohydroxamic acid]
– | 6.00 to 8.00 | 6.00 to 8.00 | – | O=C(NO)c1cnc(N2CCC(N3CC(=O)N4C(Cc5c([nH]c6ccccc56)C4c4ccc5c(c4)OCO5)C3=O)CC2)nc1 (racemic) [Example 4-03, N-Hydroxy-2-(4-[6-(1,3-benzodioxol-5-yl)-2,3,6,7,12,12a-hexahydropyrazino[1′,2′:1,6]pyrido[3,4-b]indole-1,4-dion-2-yl]piperidin-1-yl)pyrimidine-5-carboxamide]
6.00 to 8.00 | > 8.00 | – | – | CCCc1nn(C)c2c(=O)[nH]c(-c3cc(C(=O)c4ccc(C(=O)NO)s4)ccc3OCC)nc12 [Example 1-79, 5-[4-ethoxy-3-(1-methyl-7-oxo-3-propyl-6H-pyrazolo[4,3-d]pyrimidin-5-yl)benzoyl]thiophene-2-carbohydroxamic acid]
6.00 to 8.00 | 6.00 to 8.00 | – | – | CCCc1nn(C)c2c(=O)[nH]c(-c3cc(CC4CCC(C(=O)NO)C4)ccc3OCC)nc12 (stereo not drawn) [Example 1-83, 3-[[4-ethoxy-3-(1-methyl-7-oxo-3-propyl-6H-pyrazolo[4,3-d]pyrimidin-5-yl)phenyl]methyl]cyclopentanecarbohydroxamic acid]
– | > 8.00 | 5.00 to 6.00 | – | CCCc1nc(C)c2c(=O)[nH]c(-c3cc(S(=O)(=O)N4CCN(Cc5ccc(/C=C/C(=O)NO)cc5)CC4)ccc3OCC)nn12 [Example 2-01, (E)-3-[4-[[4-[4-Ethoxy-3-(5-methyl-4-oxo-7-propyl-3H-imidazo[5,1-f][1,2,4]triazin-2-yl)phenyl]sulfonylpiperazin-1-yl]methyl]phenyl]prop-2-enehydroxamic acid]
6.00 to 8.00 | > 8.00 | – | – | CCCc1nc(C)c2c(=O)[nH]c(-c3cc(Cc4ccc(C(=O)NO)s4)ccc3OCC)nn12 [Example 2-10]
6.00 to 8.00 | > 8.00 | – | – | CCCc1nc(C)c2c(=O)[nH]c(-c3cc(-c4ccc(C(=O)NO)cc4)ccc3OCC)nn12 [Example 2-11]
6.00 to 8.00 | > 8.00 | – | – | CCCc1nc(C)c2c(=O)[nH]c(-c3cc(C4CCC(C(=O)NO)CC4)ccc3OCC)nn12 (stereo not drawn) [Example 2-13, 4-[4-ethoxy-3-(5-methyl-4-oxo-7-propyl-3H-imidazo[5,1-f][1,2,4]triazin-2-yl)phenyl]cyclohexanecarbohydroxamic acid]
– | 6.00 to 8.00 | < 5.00 | – | O=C(/C=C/c1ccc(N2CC(=O)N3[C@H](c4ccc5c(c4)OCO5)c4[nH]c5ccccc5c4C[C@@H]3C2=O)cc1)NO [Example 4-01, (E)-N-Hydroxy-4-[6-(1,3-benzodioxol-5-yl)-2,3,6,7,12,12a-hexahydropyrazino[1′,2′:1,6]pyrido[3,4-b]indole-1,4-dion-2-yl]phenylprop-2-enamide]
– | 6.00 to 8.00 | < 5.00 | – | O=C(CCCN1CCC(N2CC(=O)N3[C@H](c4ccc5c(c4)OCO5)c4[nH]c5ccccc5c4C[C@@H]3C2=O)CC1)NO [Example 4-02]
– | 6.00 to 8.00 | 6.00 to 8.00 | – | O=C(/C=C/c1ccc(CN2CCC(N3CC(=O)N4[C@H](c5ccc6c(c5)OCO6)c5[nH]c6ccccc6c5C[C@@H]4C3=O)CC2)cc1)NO [Example 4-04]
– | – | < 5.00 | – | CCCc1nn(C)c2c(=O)[nH]c(-c3cc(S(=O)(=O)N4CCN(C)CC4)ccc3OCC)nc12 [Sildenafil, reference compound]
